Data taken from ChEMBL document CHEMBL1201862, “PubChem BioAssay data set” (2004).
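Following 48 hours of exposure in 96-well plates, responses at five concentrations were used to interpolate endpoints linearly. GI50 marks 50% less growth.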 The source made the active and inactive calls. Cut-off read from the data, not from the text of the source: active = GI50 up to about 1.1 µM and inactive = higher.

What was measured:
Assay in all cases: NCI tumour cell line growth inhibition, 48 h
SF-295 = tested on: SF-295
U-251 = tested on: U-251
SK-MEL-2 = tested on: SK-MEL-2
OVCAR-4 = tested on: OVCAR-4
SK-MEL-5 = tested on: SK-MEL-5
IGROV-1 = tested on: IGROV-1
SK-MEL-28 = tested on: SK-MEL-28
RPMI-8226 = tested on: RPMI-8226
SNB-75 = tested on: SNB-75
CCRF-CEM = tested on: CCRF-CEM
HL-60 = tested on: HL-60
LXFL 529 = tested on: LXFL 529
A549 = tested on: A549
COLO 205 = tested on: COLO 205
UACC-257 = tested on: UACC-257
Malme-3M = tested on: Malme-3M
OVCAR-5 = tested on: OVCAR-5
SN12C = tested on: SN12C
A498 = tested on: A498
NCI-H23 = tested on: NCI-H23
SF-268 = tested on: SF-268
MOLT-4 = tested on: MOLT-4
SR = tested on: SR
TK-10 = tested on: TK-10
HCT-15 = tested on: HCT-15
LOX IMVI = tested on: LOX IMVI
HOP-18 = tested on: HOP-18
SF-539 = tested on: SF-539
UO-31 = tested on: UO-31
DMS-114 = tested on: DMS-114
NCI-H226 = tested on: NCI-H226
HT-29 = tested on: HT-29
NCI-H522 = tested on: NCI-H522
RXF 393 = tested on: RXF 393
XF498 = tested on: XF498
DMS-273 = tested on: DMS-273
SW-620 = tested on: SW-620
ACHN = tested on: ACHN
RXF 631 = tested on: RXF 631
SNB-19 = tested on: SNB-19
KM12 = tested on: KM12
HCC 2998 = tested on: HCC 2998
DLD-1 = tested on: DLD-1
OVCAR-8 = tested on: OVCAR-8
UACC-62 = tested on: UACC-62
KM-20L2 = tested on: KM-20L2
SK-OV-3 = tested on: SK-OV-3
SNB-78 = tested on: SNB-78
HOP-62 = tested on: HOP-62
OVCAR-3 = tested on: OVCAR-3
M14 = tested on: M14
EKVX = tested on: EKVX
K562 = tested on: K562
786-0 = tested on: 786-0
NCI-H460 = tested on: NCI-H460
CAKI-1 = tested on: CAKI-1
HCT-116 = tested on: HCT-116
HOP-92 = tested on: HOP-92
M19-MEL = tested on: M19-MEL

In the case of `CNC(C)Cc1ccc(O)cc1` (stereo not given), the GI50 (SF-295) is reported as > 100 µM (inactive), the GI50 (U-251) is reported as > 100 µM (inactive) and the GI50 (SK-MEL-2) is reported as > 100 µM (inactive). The GI50 (OVCAR-4) was > 100 µM (inactive), the GI50 (SK-MEL-5) was > 100 µM (inactive) and the GI50 (IGROV-1) was > 100 µM (inactive). For the same molecule, the GI50 (SK-MEL-28) was > 100 µM (inactive), the GI50 (RPMI-8226) was > 100 µM (inactive) and the GI50 (SNB-75) was > 100 µM (inactive). For the same molecule, the GI50 (CCRF-CEM) was > 100 µM (inactive), the GI50 (HL-60) was > 100 µM (inactive) and the GI50 (LXFL 529) was > 100 µM (inactive). The GI50 (A549) was > 100 µM (inactive), the GI50 (COLO 205) was > 100 µM (inactive) and the GI50 (UACC-257) was > 100 µM (inactive). The GI50 (Malme-3M) was > 100 µM (inactive), the GI50 (OVCAR-5) was > 100 µM (inactive) and the GI50 (SN12C) was > 100 µM (inactive). For the same molecule, the GI50 (A498) was > 100 µM (inactive), the GI50 (NCI-H23) was > 100 µM (inactive) and the GI50 (SF-268) was > 100 µM (inactive). For the same molecule, the GI50 (MOLT-4) was > 100 µM (inactive), the GI50 (SR) was > 100 µM (inactive) and the GI50 (TK-10) was > 100 µM (inactive). The GI50 (HCT-15) was over 100 µM, the GI50 (LOX IMVI) was > 100 µM (inactive) and the GI50 (HOP-18) was > 100 µM (inactive). For the same molecule, the GI50 (SF-539) was > 100 µM (inactive), the GI50 (UO-31) was > 100 µM (inactive) and the GI50 (DMS-114) was > 100 µM (inactive). For the same molecule, the GI50 (NCI-H226) was > 100 µM (inactive), the GI50 (HT-29) was > 100 µM (inactive) and the GI50 (NCI-H522) was > 100 µM (inactive). For the same molecule, the GI50 (RXF 393) was > 100 µM (inactive), the GI50 (XF498) was > 100 µM (inactive) and the GI50 (DMS-273) was > 100 µM (inactive). For the same molecule, the GI50 (SW-620) was > 100 µM (inactive), the GI50 (ACHN) was > 100 µM (inactive) and the GI50 (RXF 631) was > 100 µM (inactive). For the same molecule, the GI50 (SNB-19) was > 100 µM (inactive), the GI50 (KM12) was > 100 µM (inactive) and the GI50 (HCC 2998) was > 100 µM (inactive). For the same molecule, the GI50 (DLD-1) was > 100 µM (inactive), the GI50 (OVCAR-8) was > 100 µM (inactive) and the GI50 (UACC-62) was > 100 µM (inactive). The GI50 (KM-20L2) was > 100 µM (inactive), the GI50 (SK-OV-3) was > 100 µM (inactive) and the GI50 (SNB-78) was > 100 µM (inactive). The GI50 (HOP-62) was > 100 µM (inactive), the GI50 (OVCAR-3) was > 100 µM (inactive) and the GI50 (M14) was > 100 µM (inactive). The GI50 (EKVX) was > 100 µM (inactive), the GI50 (K562) was > 100 µM (inactive) and the GI50 (786-0) was > 100 µM (inactive). For the same molecule, the GI50 (NCI-H460) was > 100 µM (inactive), the GI50 (CAKI-1) was > 100 µM (inactive) and the GI50 (HCT-116) was > 100 µM (inactive). The GI50 (HOP-92) was > 100 µM (inactive).

`Oc1cccc2nc3cc(CN4CCOCC4)c(CN4CCOCC4)cc3nc12` was tested, and the GI50 (SF-295) was 45.8 µM (inactive), the GI50 (U-251) was 33.6 µM (inactive) and the GI50 (SK-MEL-2) was > 100 µM (inactive). For the same molecule, the GI50 (OVCAR-4) was 67.3 µM (inactive), the GI50 (SK-MEL-5) was 24.4 µM (inactive) and the GI50 (IGROV-1) was > 100 µM (inactive). For the same molecule, the GI50 (SK-MEL-28) was > 100 µM (inactive), the GI50 (SNB-75) was > 100 µM (inactive) and the GI50 (CCRF-CEM) was 44.9 µM (inactive). For the same molecule, the GI50 (HL-60) was 33.3 µM (inactive), the GI50 (LXFL 529) was 48.1 µM (inactive) and the GI50 (A549) was 40.5 µM (inactive). For the same molecule, the GI50 (COLO 205) was 56.9 µM (inactive), the GI50 (UACC-257) was > 100 µM (inactive) and the GI50 (Malme-3M) was 57.5 µM (inactive). For the same molecule, the GI50 (OVCAR-5) was 43.8 µM (inactive), the GI50 (SN12C) was 79.3 µM (inactive) and the GI50 (A498) was > 100 µM (inactive). The GI50 (NCI-H23) was > 100 µM (inactive), the GI50 (SF-268) was 48.2 µM (inactive) and the GI50 (MOLT-4) was 31.9 µM (inactive). For the same molecule, the GI50 (SR) was 40.2 µM (inactive), the GI50 (TK-10) was > 100 µM (inactive) and the GI50 (HCT-15) was 37.4 µM. The GI50 (LOX IMVI) was 38.3 µM (inactive), the GI50 (HOP-18) was 59.7 µM (inactive) and the GI50 (SF-539) was 38.3 µM (inactive). The GI50 (UO-31) was 29.6 µM (inactive), the GI50 (NCI-H226) was 68.7 µM (inactive) and the GI50 (HT-29) was 48.8 µM (inactive). For the same molecule, the GI50 (NCI-H522) was 30.9 µM (inactive), the GI50 (RXF 393) was 77.3 µM (inactive) and the GI50 (XF498) was > 100 µM (inactive). The GI50 (DMS-273) was 54.7 µM (inactive), the GI50 (SW-620) was 57.3 µM (inactive) and the GI50 (ACHN) was 47.8 µM (inactive). The GI50 (RXF 631) was 56.4 µM (inactive), the GI50 (SNB-19) was > 100 µM (inactive) and the GI50 (KM12) was 67 µM (inactive). The GI50 (HCC 2998) was 50.8 µM (inactive), the GI50 (DLD-1) was 61 µM (inactive) and the GI50 (OVCAR-8) was 44.7 µM (inactive). The GI50 (UACC-62) was 40.2 µM (inactive), the GI50 (KM-20L2) was 48.9 µM (inactive) and the GI50 (SK-OV-3) was 50.6 µM (inactive). For the same molecule, the GI50 (SNB-78) was > 100 µM (inactive), the GI50 (HOP-62) was 52 µM (inactive) and the GI50 (OVCAR-3) was 42.2 µM (inactive). For the same molecule, the GI50 (M14) was 18.7 µM (inactive), the GI50 (M19-MEL) was 25.9 µM (inactive) and the GI50 (EKVX) was > 100 µM (inactive). The GI50 (K562) was 34.3 µM (inactive), the GI50 (786-0) was 59.7 µM (inactive) and the GI50 (NCI-H460) was 54.3 µM (inactive). The GI50 (CAKI-1) was > 100 µM (inactive), the GI50 (HCT-116) was 52.2 µM (inactive) and the GI50 (HOP-92) was 46.7 µM (inactive).
